{"source": "patent US7175872B2", "about": "“Pyridinium-Betain compounds for use as taste modulators” (Nestec S.A., priority 2002, dated 2007)", "key": {"[1]": {"test_system": "bitter taste", "settings": "in vivo; cited from earlier work"}, "[2]": {"test_system": "bitter taste of L-phenylalanine", "assay": "Bitter-blocking effect on L-phenylalanine (detection threshold, 1/1 mixtures)", "format": "in vivo", "settings": "for own taste: Pyridinium-Betaine alone; for Taste quality: conc. 32 mmol/L, mixtures 1/1 with L-Phe", "procedure": "• Sensory panel training: […] Sensory analyses were performed in a sensory panel room at 22-25° C. on three different sessions. • Taste thresholds: The taste thresholds of the tastants or mixtures containing basic tastants plus Pyridinium-Betains were determined in a triangle test using Evian® mineral water as the solvent at a defined pH ([…] and H.-D. Belitz, Z. Lebensm. Unters. Forsch. 1975, 159, 65-72). The samples (3 mL) were presented in order of increasing concentrations (serial 1:1 dilutions). The threshold values evaluated in two different sessions were averaged. […] The taste intensities of aqueous (Evian®) solutions containing a basic tastant, such as glucose and MSG, for example, in constant concentrations and the compounds of the general formula (A), for example […], in various concentrations were compared with those of a solution containing the basic tastant only. To achieve this, triangle tests were performed with two glass vials containing the basic tastant in constant concentrations, and one glass vial containing a stepwise 1:1-diluted mixture of basic […]. […] The relative taste strength (taste enhancing factor) of a mixture containing the basic […] was related to the basic tastants glucose, MSG, or other tastants, respectively, as standard substances, and was determined as the ratio of the concentrations c of iso-intensely tasting solutions of the basic tastant, such as glucose (glc), and the mixture containing tastant plus Pyridinium-Betain, […])=[…] […] This taste enhancing effect is illustrated in examples. The tasteless Pyridinium-Betaines […] and Gabapyridaine, built from non-[…] amino acids, were tested for their bitter-blocking activity on L-phenylalanine."}, "[3]": {"test_system": "salty taste of NaCl", "assay": "Salt taste detection threshold of NaCl/Pyridinium-Betaine mixtures (triangle test, sensory panel)", "format": "in vivo", "procedure": "• Sensory panel training: […] Sensory analyses were performed in a sensory panel room at 22-25° C. on three different sessions. • Taste thresholds: The taste thresholds of the tastants or mixtures containing basic tastants plus Pyridinium-Betains were determined in a triangle test using Evian® mineral water as the solvent at a defined pH ([…] and H.-D. Belitz, Z. Lebensm. Unters. Forsch. 1975, 159, 65-72). The samples (3 mL) were presented in order of increasing concentrations (serial 1:1 dilutions). The threshold values evaluated in two different sessions were averaged. […] The taste intensities of aqueous (Evian®) solutions containing a basic tastant, such as glucose and MSG, for example, in constant concentrations and the compounds of the general formula (A), for example […], in various concentrations were compared with those of a solution containing the basic tastant only. […] The relative taste strength (taste enhancing factor) of a mixture containing the basic […] was related to the basic tastants glucose, MSG, or other tastants, respectively, as standard substances, and was determined as the ratio of the concentrations c of iso-intensely tasting solutions of the basic tastant, such as glucose (glc), and the mixture containing tastant plus Pyridinium-Betain, […])=[…] […] This taste enhancing effect is illustrated in examples."}, "[4]": {"test_system": "bitter taste of L-phenylalanine", "assay": "Bitter intensity ranking with Glypyridaine: L-Phenylalanine", "format": "in vivo", "excerpt": "(§1) Instead of working with low concentrated solutions at the bitter threshold, another series of experiments use carried out using more concentrated solutions of various bitter compounds to evaluate the bitter-blocking properties of Pyridinium-Betaines based on non-chiral amino acids. […] The bitter-reducing effect was most pronounced with L-Phenylalanine, the dipeptide H-Gly-Leu-OH, and caffeine."}, "[5]": {"test_system": "bitter taste of naringine", "assay": "Bitter intensity ranking with Glypyridaine: naringine", "format": "in vivo", "settings": "scale 0-5", "excerpt": "as §1"}, "[6]": {"test_system": "bitter taste of salicine", "assay": "Bitter intensity ranking with Glypyridaine: salicine", "format": "in vivo", "settings": "scale 0-5", "excerpt": "as §1"}, "[7]": {"test_system": "bitter taste of H-Gly-Leu-OH", "assay": "Bitter intensity ranking with Glypyridaine: H-Gly-Leu-OH", "format": "in vivo", "settings": "scale 0-5", "excerpt": "as §1, with “caffeine. For example the 10:1 mixture of L-Phenylalanine and […] was weaker in bitterness (score 3) as compared to pure L-Phenylalanine (score 5).” for “caffeine.”"}, "[8]": {"test_system": "bitter taste of caffeine", "assay": "Bitter intensity ranking with Glypyridaine: caffeine", "format": "in vivo", "settings": "scale 0-5", "excerpt": "as §1"}, "[9]": {"test_system": "bitter taste of coffee brew", "assay": "Bitterness reduction of coffee with Glypyridaine", "format": "in vivo", "settings": "coffee brew 40 g/L plus 2.0 mmol/L Glypyridaine; coffee alone 5; scale 0 (no bitterness) to 5 (very bitter)"}, "[10]": {"test_system": "salty taste of NaCl", "assay": "Salt-intensity ranking of NaCl/Pyridinium-Betaine mixtures by sensory panel", "format": "in vivo", "settings": "20 mmol/L each, pH 7.0; for Salt-intensity: scale 0 (not salty) to 5 (very salty), reference NaCl-solution ranked as 1", "excerpt": "The salt-intensities of various NaCl/Pyridinium-Betaine mixtures (20 mmol/L each) were compared to a 20 mmol/L NaCl standard solution. The sensory panel was asked to rank the salt-intensities of these solutions on a scale from 0 (not salty) to 5 (very salty), while the reference NaCl-solution was ranked as 1. As listed in Table 6, the most intense salty taste was found in the solution containing NaCl and Alapyridaine, as well as in the triple mixture with L-arginine. A slight impact was found for Argpyridaine and L-arginine."}}, "note": "Structures can show the parent of a compound that is named as a salt."}
{"molecule": "O=C1C=C(c2ccco2)C(CO)[n+]2cc([O-])c(Cc3ccco3)cc21", "note": "(stereo not drawn) [3-(2-furyl)-8-[(2-furyl)methyl]-4-hydroxymethyl-1-oxo-1H,4H-quinolizinium-7-olate]", "values": [{"measurement": "bitter taste detection threshold", "setting": "[1]", "result": 0.00025, "unit": "mmol/kg water"}]}
{"molecule": "O=C([O-])CCC[n+]1cc(O)ccc1CO", "note": "[Gabapyridaine]", "values": [{"measurement": "own taste", "setting": "[2]", "result": "tasteless"}, {"measurement": "Taste quality", "setting": "[2]; pH 7.0", "result": "complete loss of the bitter taste"}]}
{"molecule": "O=C([O-])C[n+]1cc(O)ccc1CO", "note": "[Glypyridaine, N-carboxymethyl-3-hydroxy-6-hydroxymethyl-pyridinium inner salt]", "values": [{"measurement": "Salt detection threshold", "setting": "[3]; mixture with NaCl, pH 7.0", "result": 2.0, "unit": "mmol/kg water"}, {"measurement": "Taste quality", "setting": "[3]; mixture with NaCl, pH 7.0", "result": "salty"}, {"measurement": "Threshold decrease", "setting": "[3]; mixture with NaCl, pH 7.0, vs NaCl in water 10.0 mmol/L", "result": 5.0}, {"measurement": "Bitter taste intensity", "setting": "[4]; L-Phenylalanine 20 mmol/L water, ratio to Glypyridaine 1:1, scale 0-5", "result": 0}, {"measurement": "Bitter taste intensity", "setting": "[4]; L-Phenylalanine 20 mmol/L water, ratio to Glypyridaine 10:1, scale 0-5", "result": 0.5}, {"measurement": "Bitter taste intensity", "setting": "[4]; L-Phenylalanine 40 mmol/L water, ratio to Glypyridaine 1:1, scale 0-5", "result": 0}, {"measurement": "Bitter taste intensity", "setting": "[4]; L-Phenylalanine 40 mmol/L water, ratio to Glypyridaine 10:1, scale 0-5", "result": 2}, {"measurement": "Bitter taste intensity", "setting": "[4]; L-Phenylalanine 80 mmol/L water, ratio to Glypyridaine 1:1, scale 0-5", "result": 0.5}, {"measurement": "Bitter taste intensity", "setting": "[4]; L-Phenylalanine 80 mmol/L water, ratio to Glypyridaine 10:1, scale 0-5", "result": 3}, {"measurement": "Bitter taste intensity", "setting": "[5]; Naringine 0.06 mmol/L water, ratio to Glypyridaine 1:1", "result": 1}, {"measurement": "Bitter taste intensity", "setting": "[5]; Naringine 0.13 mmol/L water, ratio to Glypyridaine 1:1", "result": 2}, {"measurement": "Bitter taste intensity", "setting": "[5]; Naringine 0.25 mmol/L water, ratio to Glypyridaine 1:1", "result": 3}, {"measurement": "Bitter taste intensity", "setting": "[6]; Salicine 0.8 mmol/L water, ratio to Glypyridaine 1:1", "result": 1}, {"measurement": "Bitter taste intensity", "setting": "[6]; Salicine 1.6 mmol/L water, ratio to Glypyridaine 1:1", "result": 2}, {"measurement": "Bitter taste intensity", "setting": "[6]; Salicine 3.2 mmol/L water, ratio to Glypyridaine 1:1", "result": 3}, {"measurement": "Bitter taste intensity", "setting": "[7]; H-Gly-Leu-OH 30 mmol/L water, ratio to Glypyridaine 2:1", "result": 0.5}, {"measurement": "Bitter taste intensity", "setting": "[7]; H-Gly-Leu-OH 30 mmol/L water, ratio to Glypyridaine 10:1", "result": 2}, {"measurement": "Bitter taste intensity", "setting": "[7]; H-Gly-Leu-OH 60 mmol/L water, ratio to Glypyridaine 2:1", "result": 1}, {"measurement": "Bitter taste intensity", "setting": "[7]; H-Gly-Leu-OH 60 mmol/L water, ratio to Glypyridaine 10:1", "result": 3}, {"measurement": "Bitter taste intensity", "setting": "[7]; H-Gly-Leu-OH 120 mmol/L water, ratio to Glypyridaine 10:1", "result": 4}, {"measurement": "Bitter taste intensity", "setting": "[8]; Caffeine 4 mmol/L water, ratio to Glypyridaine 1:1", "result": 0.5}, {"measurement": "Bitter taste intensity", "setting": "[8]; Caffeine 4 mmol/L water, ratio to Glypyridaine 5:1", "result": 1.5}, {"measurement": "Bitter taste intensity", "setting": "[8]; Caffeine 8 mmol/L water, ratio to Glypyridaine 1:1", "result": 1.5}, {"measurement": "Bitter taste intensity", "setting": "[8]; Caffeine 8 mmol/L water, ratio to Glypyridaine 5:1", "result": 2}, {"measurement": "Bitter taste intensity", "setting": "[8]; Caffeine 16 mmol/L water, ratio to Glypyridaine 1:1", "result": 2}, {"measurement": "Bitter taste intensity", "setting": "[8]; Caffeine 16 mmol/L water, ratio to Glypyridaine 5:1", "result": 3}, {"measurement": "own taste", "setting": "[2]", "result": "tasteless"}, {"measurement": "Taste quality", "setting": "[2]; pH 7.0", "result": "complete loss of the bitter taste"}, {"measurement": "bitter taste intensity of coffee", "setting": "[9]", "result": 2}]}
{"molecule": "N=C(N)NCCC[C@H](N)C(=O)O", "note": "[L-Arginine (L-Arg), L-Arginine]", "values": [{"measurement": "Salt-intensity", "setting": "[10]", "result": 0.0}]}
{"molecule": "N[C@@H](Cc1ccccc1)C(=O)O", "note": "[L-Phenylalanine, reference compound]", "values": [{"measurement": "Bitter taste intensity", "setting": "[4]; L-Phenylalanine 20 mmol/L water, no Glypyridaine, scale 0 no bitterness to 5 strongly bitter", "result": 2}, {"measurement": "Bitter taste intensity", "setting": "[4]; L-Phenylalanine 40 mmol/L water, no Glypyridaine, scale 0-5", "result": 4}, {"measurement": "Bitter taste intensity", "setting": "[4]; L-Phenylalanine 80 mmol/L water, no Glypyridaine, scale 0-5", "result": 5}, {"measurement": "Taste quality", "setting": "[2]; pH 7.0", "result": "bitter"}, {"measurement": "Detection threshold", "setting": "[2]; pH 7.0", "result": 16.0, "unit": "mmol/L water"}]}
{"molecule": "[Cl-].[Na+]", "note": "[NaCl, sodium chloride, reference compound]", "values": [{"measurement": "Taste quality", "setting": "[10]", "result": "salty"}, {"measurement": "Salt-intensity", "setting": "[10]", "result": 1.0}, {"measurement": "threshold of salt (NaCl) in water", "setting": "[3]; NaCl alone", "result": "^aThe threshold of salt (NaCl) in water is 10.0 mmol/L."}, {"measurement": "Taste quality", "setting": "[3]; salt and mixtures with Alapyridaine enantiomers (Table 11), pH not stated", "result": "salty"}, {"measurement": "Detection threshold", "setting": "[3]; salty, salt and mixtures with Alapyridaine enantiomers (Table 11), pH not stated", "result": 10.0, "unit": "mmol/kg water"}]}
{"molecule": "C[C@@H]1O[C@@H](O[C@H]2[C@H](Oc3cc(O)c4c(c3)O[C@H](c3ccc(O)cc3)CC4=O)O[C@H](CO)[C@@H](O)[C@@H]2O)[C@H](O)[C@H](O)[C@H]1O", "note": "[Naringine, reference compound]", "values": [{"measurement": "Bitter taste intensity", "setting": "[5]; Naringine 0.06 mmol/L water, no Glypyridaine", "result": 2.5}, {"measurement": "Bitter taste intensity", "setting": "[5]; Naringine 0.13 mmol/L water, no Glypyridaine", "result": 4}, {"measurement": "Bitter taste intensity", "setting": "[5]; Naringine 0.25 mmol/L water, no Glypyridaine", "result": 5}]}
{"molecule": "OCc1ccccc1O[C@@H]1O[C@H](CO)[C@@H](O)[C@H](O)[C@H]1O", "note": "[Salicine, reference compound]", "values": [{"measurement": "Bitter taste intensity", "setting": "[6]; Salicine 0.8 mmol/L water, no Glypyridaine", "result": 3}, {"measurement": "Bitter taste intensity", "setting": "[6]; Salicine 1.6 mmol/L water, no Glypyridaine", "result": 4.5}, {"measurement": "Bitter taste intensity", "setting": "[6]; Salicine 3.2 mmol/L water, no Glypyridaine", "result": 5}]}
{"molecule": "O=C([O-])CC[n+]1cc(O)ccc1CO", "note": "[β-Alapyridaine]", "values": [{"measurement": "own taste", "setting": "[2]", "result": "tasteless"}, {"measurement": "Taste quality", "setting": "[2]; pH 7.0", "result": "complete loss of the bitter taste"}]}
{"molecule": "H-Gly-Leu-OH [reference compound]", "values": [{"measurement": "Bitter taste intensity", "setting": "[7]; H-Gly-Leu-OH 30 mmol/L water, no Glypyridaine", "result": 2.5}, {"measurement": "Bitter taste intensity", "setting": "[7]; H-Gly-Leu-OH 60 mmol/L water, no Glypyridaine", "result": 3.5}, {"measurement": "Bitter taste intensity", "setting": "[7]; H-Gly-Leu-OH 120 mmol/L water, no Glypyridaine", "result": 5}]}
